In patent US20230278972A1, “SUBSTITUTED HALOALKYL SULFONANILIDE HERBICIDES” (FMC Corporation, priority 2020, published 2023):

Columns and labels:
Format in all cases: in vivo
[1] = test system: goosegrass (Eleusine indica); experiment: Test A1 postemergence, goosegrass; details: for Goosegrass plant response rating: 31 g ai/ha, postemergence; for Plant response rating, Goosegrass: Postemergence, 125 g ai/ha
How it was run: (§1)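 Herbicidal response was scored on plants treated either preemergence, by directed spray onto soil of a loam–sand blend after sowing, or postemergence on potted plants at the one- to two-leaf stage, 2–10 cm high. Test chemicals were carried in a non-phytotoxic solvent mix with surfactant.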

[2] = test system: soybean (Glycine max); experiment: Test A1 postemergence, soybean; details: for Soybean plant response rating: 31 g ai/ha, postemergence; for Plant response rating, Soybean: Postemergence, 125 g ai/ha
How it was run: as §1

[3] = test system: Foxtail, Giant (giant foxtail, Setaria faberi); experiment: Test A1 preemergence, Foxtail, Giant
How it was run: (§2)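 Test compounds were formulated in a non-phytotoxic solvent mixture containing a surfactant. For preemergence, seeds sown in a loam soil–sand blend received a directed soil spray. For postemergence, potted plants in the same soil, 2 to 10 cm tall at the one- to two-leaf stage, were sprayed.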

[4] = test system: Ryegrass, Italian (Italian ryegrass, Lolium multiflorum); experiment: Test A1 preemergence, Ryegrass, Italian
How it was run: as §2

[5] = test system: ragweed (common ragweed, Ambrosia artemisiifolia); experiment: Test A1 preemergence, ragweed
How it was run: as §2

[6] = 0 to 100 scale (0 no effect, 100 complete control)
[7] = 31 g ai/ha, 0 to 100 scale (0 no effect, 100 complete control)
[8] = 125 g ai/ha, 0 to 100 scale, 0 no effect, 100 complete control
[9] = 0 to 100 scale (0 no effect, 100 complete control), 10 days

Compound	Goosegrass plant response rating [1, 6]	Plant response rating, Goosegrass ([1]; 0 to 100 scale)	Soybean plant response rating [2, 6]	Plant response rating, Soybean ([2]; 0 to 100 scale)	Plant response rating, Foxtail, Giant [3, 7]	Plant response rating, Foxtail, Giant [3, 8]	Plant response rating, Ryegrass, Italian [4, 7]	Plant response rating, Ryegrass, Italian [4, 8]	Plant response rating, Ragweed [5, 7]	Plant response rating, Ragweed [5, 8]	Plant response rating, Goosegrass [1, 9]	Plant response rating, Soybean [2, 9]
Cc1c(C(=O)N2C[C@@H](C)O[C@H](C)C2)cc(N(COC(=O)C(C)(C)C)S(=O)(=O)C(F)(F)F)c(C)c1C (relative stereo) [Compound 373]	0	70	50	70	0	90	0	0	50	50	–	–
CCOC(=O)N(c1cc(C(=O)N2C[C@@H](C)O[C@H](C)C2)c(C)c(C)c1C)S(=O)(=O)C(F)(F)F (relative stereo) [Compound 374]	0	90	50	90	50	100	0	90	0	70	–	–
Cc1c(NS(=O)(=O)C(F)(F)F)cc(C(=O)N2CCC(C)CC2)c(C)c1C [Compound 366]	0	80	50	60	100	100	0	40	30	70	–	–
COC1CCN(C(=O)c2cc(NS(=O)(=O)C(F)(F)F)c(C)c(C)c2C)CC1 [Compound 367]	10	70	50	80	90	100	0	20	20	90	–	–
C#CCN(C)C(=O)c1cc(NS(=O)(=O)C(F)(F)F)c(C)c(C)c1C [Compound 368]	30	90	70	90	90	100	50	100	50	80	–	–
COC1CCN(C(=O)c2cc(N(COC(=O)C(C)(C)C)S(=O)(=O)C(F)(F)F)c(C)c(C)c2C)CC1 [Compound 370]	0	60	50	80	10	90	30	30	0	70	–	–
C#CCN(C)C(=O)c1cc(N(COC(=O)C(C)(C)C)S(=O)(=O)C(F)(F)F)c(C)c(C)c1C [Compound 371]	0	80	60	90	10	100	0	80	40	90	–	–
Cc1cc(C)c(C2=NOC3OCCCC23)cc1NS(=O)(=O)C(F)(F)F (centres unmarked) [Compound 372]	0	80	30	60	90	100	40	90	0	70	–	–
CCC1CC(c2cc(NS(=O)(=O)C(F)(F)F)c(C)cc2C)=NO1 (centres unmarked) [Compound 375]	50	90	30	60	10	90	30	80	0	20	–	–
CCC1CC(c2cc(N(COC(=O)C(C)(C)C)S(=O)(=O)C(F)(F)F)c(C)cc2C)=NO1 (centres unmarked) [Compound 376]	0	50	20	100	0	30	0	30	0	0	–	–
Cc1ccc(C2=NOC3CCCC23)cc1NS(=O)(=O)C(F)(F)F (centres unmarked) [Compound 377]	0	0	0	30	0	0	0	40	0	0	–	–
CCc1cc(C)c(N(COC(=O)C(C)(C)C)S(=O)(=O)C(F)(F)F)cc1C1=NOC2CCCC12 (centres unmarked) [Compound 378]	0	30	0	20	0	20	0	40	0	0	–	–
Cc1c(NS(=O)(=O)C(F)(F)F)cc(C2=NOC3(CCCC3)C2)c(C)c1C [Compound 380]	0	–	50	–	80	100	60	100	0	40	30	60
Cc1c(C2=NOC3(CCCC3)C2)cc(N(COC(=O)C(C)(C)C)S(=O)(=O)C(F)(F)F)c(C)c1C [Compound 382]	0	–	40	–	0	30	30	50	0	0	0	50
Cc1cc(C)c(N(COC(=O)C(C)(C)C)S(=O)(=O)C(F)(F)F)cc1C1=NOC(C(C)C)C1 (centres unmarked) [Compound 383]	0	–	30	–	0	20	0	40	0	0	20	50
Cc1cc(C)c(N2CC3(CCCCC3)CC2=O)cc1NS(=O)(=O)C(F)(F)F [Compound 392]	0	–	50	–	0	100	0	60	0	0	0	60
Cc1cc(Cl)c(NS(=O)(=O)C(F)(F)F)cc1N1CCC2(CCCCC2)C1=O [Compound 393]	0	–	50	–	70	100	90	100	40	90	70	60
